In the NIST ThermoML archive (doi:10.1021/je060271a):

Settings: 323.15 K, Liquid, Vibrating tube method

CCCCCCC(=O)OCC(COC(=O)CCCCCC)(COC(=O)CCCCCC)COC(=O)CCCCCC [pentaerythritol tetraheptanoate]
Settings | mass density [kg/m3]
102 kPa | 955.7
102.5 kPa | 955.6
102.8 kPa | 955.6
103.5 kPa | 955.7
104.8 kPa | 955.6
106.8 kPa | 955.7
109.1 kPa | 955.7
113.5 kPa | 955.6
119 kPa | 955.5
127.2 kPa | 955.7
130.7 kPa | 955.6
133.3 kPa | 955.7
136.2 kPa | 955.6
136.9 kPa | 955.6
138 kPa | 955.7
138.5 kPa | 955.6
139.2 kPa | 955.7
139.5 kPa | 955.6
140.6 kPa | 955.6
144.4 kPa | 955.7
144.9 kPa | 955.7
145.8 kPa | 955.6
147.5 kPa | 955.7
152.7 kPa | 955.6
153.6 kPa | 955.7
154.3 kPa | 955.6
155.5 kPa | 955.8
156.6 kPa | 955.8
157.4 kPa | 955.7
158.7 kPa | 955.7
159.7 kPa | 955.7
161.8 kPa | 955.7
163.2 kPa | 955.6
164.2 kPa | 955.7
165.3 kPa | 955.8
166.8 kPa | 955.6
168 kPa | 955.8
169.3 kPa | 955.7
170.8 kPa | 955.7
172 kPa | 955.6
173.3 kPa | 955.7
175 kPa | 955.8
176.4 kPa | 955.7
177.9 kPa | 955.7
179.7 kPa | 955.6
181.2 kPa | 955.7
182.8 kPa | 955.8
184.6 kPa | 955.9
186.5 kPa | 955.7
188 kPa | 955.7
190.1 kPa | 955.7
193.9 kPa | 955.7
196.2 kPa | 955.6
241.4 kPa | 955.7
245.4 kPa | 955.7
265.6 kPa | 955.7
319.3 kPa | 955.8
340.6 kPa | 955.9
347.8 kPa | 955.9
364.8 kPa | 955.8
373.5 kPa | 955.8
449.4 kPa | 955.8
461.8 kPa | 955.9
492.2 kPa | 955.9
510.3 kPa | 955.9
526.4 kPa | 955.8
543.6 kPa | 956
565.9 kPa | 955.9
711.1 kPa | 955.8
779.6 kPa | 956.2
814.3 kPa | 956.1
1089.1 kPa | 956.3
1094 kPa | 956.3
1098.2 kPa | 956.3
1102.3 kPa | 956.3
1107 kPa | 956.4
1111.5 kPa | 956.4
1115.9 kPa | 956.4
1120.4 kPa | 956.4
1125.8 kPa | 956.5
1130.3 kPa | 956.4
1134.8 kPa | 956.4
1139 kPa | 956.5
1144.5 kPa | 956.3
1149 kPa | 956.4
1153.9 kPa | 956.4
1159.3 kPa | 956.3
1168.5 kPa | 956.5
1178.6 kPa | 956.4
1183.8 kPa | 956.5
1189 kPa | 956.4
1195.1 kPa | 956.5
1199.8 kPa | 956.4
1204.6 kPa | 956.4
1209.5 kPa | 956.5
1220.6 kPa | 956.5
1225.4 kPa | 956.4
1231.5 kPa | 956.5
1236.9 kPa | 956.4
1242.6 kPa | 956.5
1253.4 kPa | 956.3
1258.4 kPa | 956.6
1263.5 kPa | 956.3
1275.6 kPa | 956.5
1281.2 kPa | 956.4
1286.7 kPa | 956.4
1293.2 kPa | 956.5
1298.9 kPa | 956.4
1304.6 kPa | 956.7
1311.6 kPa | 956.5
1317.3 kPa | 956.6
